Assay results as given in patent US10907168B2, “Jasmonic acid pathway activator” (MEDICAGO INC., priority 2015, dated 2021).

Tested on: C5-1 antibody
Experiment: C5-1 antibody quantification by ELISA in agroinfiltrated leaves
Format: in vivo, Nicotiana benthamiana
Method: Forty-two day-old N. benthamiana plants grown in greenhouse were used for the experiments. Each plant was sprayed evenly with 50 ml of 0.5 mM, 1 mM or 2 mM MeJA in water containing 0.1% (v/v) Triton X-100 (Sigma-Aldrich, Mississauga ON, Canada), or with 50 ml of 1 mM arachidonic acid (Girard et al., 2007) in the same solvent, and transferred for seven days in a Conviron growth chamber (Conviron, Winnipeg MB, Canada). Plants sprayed with 50 ml of 0.1% (v/v) Triton X-100 in water were used in parallel as negative controls to avoid confounding effects due to experimental conditions. Two or three 1-cm^2 leaf discs were harvested from the third main stem leaf (see Robert et al., 2013) after seven days, as source material for protein and RNA extraction. The leaf samples were frozen immediately in liquid nitrogen and stored at −80° C. until protein or RNA extraction. Three to five biological (plant) replicates were used for each treatment, to allow for statistical treatment of the data. Two gene vectors were used for the agroinfiltration assays: an engineered pcambia2300 vector encoding the light and heavy chains of C5-1 fused to an N-terminal signal peptide sequence for cellular secretion (see Goulet et al., 2012 for details on gene construct); and the original (“empty”) pcambia2300 binary vector (CAMBIA, Canberra, Australia) as a control for agroinfection. The two binary vectors were electroporated into A. tumefaciens strain LBA4404 and the cultures were maintained in Luria-Bertani (LB) medium supplemented with 50 μg/ml kanamycin and 50 μg/ml rifampicin. For infiltration, bacteria were grown to stable phase at 28° C. to an OD600 of 1.0 and collected by centrifugation at 2,000 g. The bacterial pellets were resuspended in 10 mM 2-[N-morpholino] ethanesulfonic acid] (MES) buffer, pH 5.8, containing 100 μM acetosyringone and 10 mM MgCl2. Leaf infiltration was performed using a needle-less syringe as described earlier (D'Aoust et al., 2009), after mixing the C5-1 antibody (or empty vector) agrobacterial suspension with an equal volume of bacterial suspension carrying a binary vector for the protein silencing suppressor p19 (Voinnet et al., 2003). Infiltrated tissue for molecular characterization was collected six days post-infection (i.e. seven days post-MeJA or arachidonate treatment), unless otherwise indicated. Three to five biological (plant) replicates were used for each treatment to allow for statistical analyses. ELISA plates for C5-1 antibody quantification (Becton Dickinson, Mississauga ON, Canada) were coated with 3.75 μg/ml goat anti-mouse heavy chain-specific IgG1 (Sigma-Aldrich) in 50 mM carbonate buffer (pH 9.0) at 4° C. for 16-18 h. The plates were washed three times in 10 mM phosphate-buffered saline containing 0.1% (v/v) Tween 20 (PBS-T), blocked through a 1-h incubation at 37° C. in 1% (w/v) casein in phosphate-buffered saline (PBS) (Pierce, Rockford Ill., USA), and washed three times in PBS-T. A standard curve was generated for each plate with 0, 4, 8, 16, 24, 32, 40 and 60 ng/ml of purified mouse IgG1 (Sigma-Aldrich). All dilutions (controls and samples) were performed in a control extract obtained from leaf tissue infiltrated with a mock inoculum so that any matrix effect was eliminated. The plates were incubated with protein samples for 1 h at 37° C., washed three times in PBS-T and then incubated with peroxidase-conjugated goat anti-mouse IgG (H+L) antibodies (0.02 μg/ml in blocking solution) (Jackson ImmunoResearch) for 1 h at 37° C. After additional washes with PBS-T, the plates were incubated with the 3,3′,5,5′-tetramethylbenzidine Sure Blue peroxidase substrate (KPL, Gaithersburg Md., USA). The reaction was stopped by the addition of 1 N HCl and the absorbance was read at 450 nm. Three independent (biological) replicates were used for each assay.

[1] = ELISA, 1 mM, 24 h before infiltration

CC/C=C\C[C@H]1C(=O)CC[C@@H]1CC(=O)OC [MeJA, methyl jasmonate]
C5-1 yield change (1 mM, 24 h before infiltration, antibody expressed under alfalfa plastocyanin promoter): more than twofold decrease | C5-1 net yield as share of TSP [1]: ~7 % TSP | C5-1 net yield on a protein-relative basis [1]: 70 ng antibody/μg soluble proteins | C5-1 protein-relative yield compared with control leaves (ELISA, 1 mM, 24 h before infiltration, P<0.05): about twice | C5-1 yield on a weight basis (ELISA, 1 mM, 24 h before infiltration, maximum yield): ~425 μg/g leaf tissue | C5-1 yield on a weight basis (ELISA, 2 mM, 24 h before infiltration): ~325 μg/g leaf tissue | C5-1 yield change (ELISA, sprayed 24 h post-infiltration (0.5 or 1 mM)): No yield increase
